# Test results as given in US10946099B2, “Compositions for photodynamic therapy and fluorescence diagnosis of cancers and other diseases” (VISION GLOBAL HOLDINGS LIMITED, priority 2017, dated 2021).
# Key:
# HCT116 cells = test: Intracellular ROS generation (cellrox reagent); assay type: cell-based
# Procedure: To examine intracellular ROS generation by PpIX and PpIX-TF conjugate (TF01), HCT116 cells were seeded in 24-well, glass-bottomed plate and incubated with cellrox reagent (Thermo Fisher Scientific). After 30 min, the cells were washed three times by PBS and treated with PpIX or PpIX-TF conjugate (TF01). After 24 h of incubation, the cells were washed twice with PBS and then exposed to a 10 mW/cm^2 using a 635-nm laser source for 30 min. After irradiation, the fluorescence intensity of cells was measured by a microplate reader with excitation/emission at 485/520 nm. The values are expressed as fluorescence intensity ratio to control.
# [1] = Fluorescence emission spectroscopy; assay type: physicochemical
# Source text: A BMG fluostar spectrofluorophotometer was used to record fluorescent emissions of PpIX or PpIX-TF conjugate (referred to herein as TF01) suspended in aqueous buffer. A UV-vis spectrophotometer was used to record the absorbance spectra of PpIX and TF.
# [2] = tested on: human hepatoma SK-HEP 1 xenograft; test: In vivo PDT efficacy; details: 400 mg/kg intravenously, followed by laser application (230 mW/cm^2, 260 J/cm^2, 635-nm); nude mice
# Procedure: To test the in vivo PDT efficacy of PpIX-TF conjugate, nude mice bearing human hepatoma SK-HEP 1 xenograft were intravenously treated with PBS, 200 mg/kg or 400 mg/kg PpIX-TF conjugate (TF01) respectively (n=3-4 per group), followed by the laser application (at a light intensity 230 mW/cm^2, 260 J/cm^2, using a 635-nm laser source). Visible tumors were measured using two orthogonal measurements L and W (perpendicular to L), the volumes were calculated using the formula V=LW2/2 and recorded.
# [3] = Solubility and dispersibility in aqueous buffer; assay type: physicochemical; details: compared to PpIX in aqueous Tris-HCl buffer, 20 mM, pH 8.5
# Procedure: Improvement in solubility and dispersibility of the PpIX-TF conjugate was compared to PpIX in aqueous Tris-HCl buffer, 20 mM, pH 8.5 (FIG. 6).
# [4] = Singlet oxygen / ROS generation by RNO bleaching; assay type: physicochemical; details: relative to positive control methylene blue; RNO bleaching near 440 nm
# Procedure: To determine singlet oxygen generation, singlet oxygen detection method was applied to a 3 ml aqueous solution containing the singlet oxygen generator, 50 µM of RNO and 8 mM of imidazole. The detection for absorption intensity of RNO near 440 nm was monitored to reflect the production of ROS by a UV-vis spectrophotometer after time intervals of laser exposure.
# SK-Hep-1 cell = test: Soft agar colony-formation assay; assay type: cell-based; details: 10 ug/ml, 3 J/cm^2, 635-nm laser source
# Procedure: To estimate the anchorage-independent growth ability of cells treated by PpIX-TF conjugate (referred to herein as TF01), 3×10^4 cells of SK-Hep-1 cell were seeded in 35 mm dish and incubated for 24 h at 37° C. The cells were then treated with a PpIX-TF conjugate (TF01) or medium control. After 24 h incubation, the cells were washed twice with serum-free medium and irradiated at a light intensity of 10 mW/cm^2 using a 635-nm laser source for 5 min. Then, 5000 cells were suspended in 0.3% noble agar and cells were allowed to grow for another 2 weeks. Colonies were stained with 0.02% Giemsa Stain Solution, and documented by scanning.
# [5] = tested on: liver cancer cell line SK-Hep-1; test: Cellular localization with MitoTracker, LysoTracker and ER-Tracker; assay type: cell-based
# Procedure: The Mitotracker, lysotracker and ER-tracker (Thermo Fisher Scientific) were used to label mitochondria, lysosome and endoplasmic reticulum (ER) respectively. Two measures of correlation, the Pearson correlation coefficient (PCC) and the Mander's overlap coefficient (MOC) were calculated as depicted in the table below.
# [6] = Cell phototoxicity assay under different dosages of 635-nm laser excitation (FIG. 16); assay type: cell-based; details: when laser dosage were increased (635-nm laser, 3 J/cm^2 to 18 J/cm^2)
# Procedure: (§1) To determine cell viability under dark conditions, cells (1×10^4 cells/well) were seeded onto 96-well plates and incubated for 24 h at 37° C. After cell stabilization, the culture medium was replaced with 100 μl of culture medium containing free PpIX or PpIX-TF conjugate (referred to herein as TF01), followed by incubation for 24 h. The cells were then washed twice with serum-free medium and cell viability was evaluated by MTT assay after 48 h. To determine the in vitro phototoxicity after laser irradiation, cells (1×10^4 cells/well) were seeded onto 96-well plates and incubated for 24 h at 37° C. The cells were then treated with free PpIX or a PpIX-TF conjugate (TF01). After 24 h incubation, the cells were washed twice with serum-free medium and irradiated at a light intensity of 150 mW/cm^2 using 450 nm or 627 nm LED light source for 30 min or 10 mW/cm^2 using a 635-nm laser source for 5-30 min (3 J/cm^2 to 18 J/cm^2). The cell viability of irradiated cells was evaluated by MTT assay after 24 h of incubation.
# When laser dosage were increased, the corresponding IC50 values of PpIX-TF conjugate (TF01) were decreased.
# HepG2 = test: Cell phototoxicity assay (MTT); assay type: cell-based; details: concentration greater than about 25 μg/ml
# Procedure: as §1
# (§2) For each cancer cell line, measurements were performed in dark and in the presence of 450 nm blue laser light or 627 nm red light.
# HCT 116 = test: Cell phototoxicity assay (MTT); assay type: cell-based; details: concentration greater than about 25 μg/ml
# Procedure: as §1, §2
# [7] = tested on: colorectal carcinoma cell line HCT116; test: Cell uptake and imaging (fluorescence microscopy); assay type: cell-based
# Procedure: Cancer cells were used to detect and compare cellular uptake of PpIX and PpIX-TF conjugate (referred to herein as TF01) in vitro. The cells were cultured in medium supplemented with 10% fetal bovine serum at 37° C. and 5% CO2. After incubating cells with PpIX-TF conjugate (TF01), images were viewed by confocal microscopy.
# FIG. 9 depicts the fluorescence microscopic analysis of cellular uptake of recombinant TF in a colorectal carcinoma cell line HCT116.
compound,measurement,setting,value
"OO [H2O2, reference compound]",intracellular ROS generation,"HCT116 cells; 100 uM, positive control, HCT116",increase
"Batch 1: exemplary batch of PpIX-TF conjugate (TF01), molar ratio of PpIX to TF protein 0.690",emission properties,"[1]; 5 mg/ml (approximately 53 μM PpIX) in Tris-HCl buffer 20 mM, pH 8.5, versus control 60 μM PpIX with 5% DMSO",greater
TF01: conjugate of PpIX and recombinant TF (globin 2αβ2 tetramer); PpIX non-covalently associated with the protein,tumor volume,[2],tumor regression
same,solubility and dispersibility,[3],Improvement
same,quantum yield of ROS,[4],almost double that of methylene blue
same,cancer cell soft agar colony formation,SK-Hep-1 cell,significantly inhibit
same,Mander's overlap coefficient (MOC),[5]; Endoplasmic reticulum,0.6908
same,Pearson correlation coefficient (PCC),[5]; Endoplasmic reticulum,0.6076
same,Mander's overlap coefficient (MOC),[5]; Lysosome,0.4866
same,Pearson correlation coefficient (PCC),[5]; Lysosome,0.4974
same,Mander's overlap coefficient (MOC),[5]; Mitochondria,0.4684
same,Pearson correlation coefficient (PCC),[5]; Mitochondria,0.4922
same,IC50 values under different dosages of 635-nm laser excitation,[6],decreased
same,pH dependence of the emission intensity,"[1]; 50 mM Tris-HCl or potassium phosphate buffer, λmax=625 nm",wide pH range
same,intracellular ROS generation,"HCT116 cells; 50 um/ml (batch 2), approximately 0.71 uM PpIX, 635-nm laser 10 mW/cm^2 30 min, versus control PpIX 0.75 uM",greatly enhance
same,survival rates of the cells,HepG2; irradiation 450 nm blue light,markedly decrease
same,survival rates of the cells,HepG2; irradiation 627 nm red light,markedly decrease
same,survival rates of the cells,HCT 116; irradiation 450 nm blue light,markedly decrease
same,survival rates of the cells,HCT 116; irradiation 627 nm red light,markedly decrease
same,cellular uptake / distribution of fluorescent signals,[7],widely distributed in the cytoplasm
